Laboratory results taken from patent EP2924037A1, “QUINAZOLINE DERIVATE AND USE THEREOF AS APOPTOSIS INHIBITOR” (Linx Pharmaceutical Co., Ltd., priority 2012, dated 2013).
Where two headings read alike, the source gives them in different places.

What was measured:
[1] = Effect on serum glucose in mice; assay type: in vivo; details: Mus musculus, ip; 0.4 mg/kg i.p. once, measured 18 hours later; t-test P<0.01 for terazosin; read-out: reduction of the serum glucose level
Procedure: Mice were injected terazosin (0.4 mg/kg i.p.) once. The serum glucose level of the mice was measured 18 hours later. […] By the same method, exemplary compounds Co.1, Co.3, Co.7, Co.9, Co.13, Co.16, Co.19, Co.24, Co.27 and Co.32 as described in the present invention were all shown to be effective to reduce the serum glucose level by 20% to 50%.

[2] = tested on: sepsis models (LPS; Cecal Ligation and Puncture); test: Effects against sepsis (LPS and CLP models), 7-day survival; assay type: in vivo, BALB/C mice; details: i.p. once a day for 3 days at 0.4 mg/kg; 7-day period; P < 0.05 compared to negative controls
Procedure: After 1.5 hours, compounds were injected (i.p.) at a predetermined concentration. Mouse survival was examined every 12 hours for 7 days. Statistical significance of the difference in the survival rates was analyzed.
Another model is Cecal Ligation and Puncture (CLP) model of sepsis. Mice were anesthetized. A 1.5-2.0 cm long abdominal midline incision was made and the cecum was exposed. After ligation 5 mm from the cecal tip, the cecum was punctured once with a 22-gauge needle, and some stool was squeezed out. Then the cecum was put back into the abdomen and the abdomen was closed by running suture. After 1.5 hours, compounds were injected (i.p.) at a predetermined concentration. Mouse survival was examined every 12 hours for 7 days. Statistical significance of the difference in the survival rates was analyzed.
These compounds were individually injected (i.p.) once a day for 3 days at 0.4 mg/kg.

[3] = target: T1, pgk1 (Mus musculus, UniProt P09411); test: Activity assay of pgk1 (GAPDH-coupled, absorbance at 340 nm); assay type: biochemical
T1 construct: His; made in house; host or cells: E. coli
T1 sequence (P09411 1-417): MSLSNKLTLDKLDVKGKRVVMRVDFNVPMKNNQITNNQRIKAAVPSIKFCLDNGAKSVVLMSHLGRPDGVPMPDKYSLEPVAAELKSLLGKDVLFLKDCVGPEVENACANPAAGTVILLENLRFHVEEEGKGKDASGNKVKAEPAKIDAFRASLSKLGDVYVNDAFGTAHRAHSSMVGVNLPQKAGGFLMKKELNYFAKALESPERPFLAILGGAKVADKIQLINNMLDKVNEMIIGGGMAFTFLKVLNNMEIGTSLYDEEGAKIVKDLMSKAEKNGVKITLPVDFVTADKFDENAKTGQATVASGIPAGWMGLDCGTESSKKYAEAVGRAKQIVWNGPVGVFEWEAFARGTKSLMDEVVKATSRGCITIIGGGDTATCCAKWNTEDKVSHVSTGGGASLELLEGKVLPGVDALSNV
Procedure: The recombinant mouse pgk1 protein (His-pgk1) was expressed in the E. Coli. The protein was purified by a Nickel column. The proteins were diluted to 0.15 unit /mL. Then, different concentrations of terazosin were added to determine the pgk1 activity.
According to the components of Colorimetric GAPDH Assay Kit (ScienCells), the reaction solution was prepared with solutions of GAPDH, HEPES, and MgSO4. A predetermined concentration of the compound of Formula I was added to the reaction solution (30 mM Hepes, 3 mM ATP, 0.22 mM NADH, 10 mM MgSO4, 10 mM 3-PGA, 3-4 U/ml GAPDH, pH 7.5). Absorbance was measured at 25 °C with a spectroscope (340 nm). Relative activity of pgk1 was calculated based on the changes of absorbance value within 1-10 minutes. The activity has a positive correlation with the changes of absorbance value. The absorbance of the same compound at 340 nm was subtracted in the test group.

[4] = tested on: cerebral thrombosis; test: Mouse model of cerebral thrombosis, infarct volume; assay type: in vivo; details: 0.4 mg/kg i.p.; 6 mice per condition; t-test P<0.05
Procedure: In a mouse model of cerebral thrombosis, the mouse brains were stained after death from thrombosis. […] The statistical analysis was performed based on % infarct volume = white area/total area, 6 mice were tested for each condition. t-test, P<0.05.

[5] = tested on: E. Coli O111:B4; test: Oxford Cup test of antibiotic activity; assay type: cell-based; details: after 24 hrs; terazosin 0.2µg, 2µg, 200µg, 2mg; ampicillin 2mg
Procedure: The antibiotic activity of terazosin was measured by Oxford Cup test. Oxford Cups containing different concentrations of terazosin were placed in the petri dish wherein E. Coli O111:B4 was cultured on LB medium. The effects of terazosin and ampicillin on the growth of E. Coli were examined after 24 hrs.

[6] = 0.02 µg/ml, read-out: activation of pgk1 represented by fold changes
[7] = read-out: Activity* (the times of pgk1 activity induced by 0.02µg/ml of the tested compound)

| SMILES | fold induction at 0.02 µg/mL [3, 7] | inhibition in vivo at 0.4 mg/kg [1] [%] | infarct volume (% infarct volume = white area/total area) [4] | other results |
| --- | --- | --- | --- | --- |
| COc1cc2nc(N3CCN(C(=O)C4CCCO4)CC3)nc(NC(C)=O)c2cc1OC (stereo not shown) [Co.1] | 2.9 | 20 to 50 | effective to reduce the infarct volume | survival against sepsis [2]: significantly increased survival against sepsis; fold induction at 0.02 µg/mL [3, 6]: 2.9 |
| COc1cc2nc(N3CCN(C(=O)C4CCCO4)CC3)nc(NO)c2cc1OC (stereo not shown) [Co.4] | 3.4 | – | effective to reduce the infarct volume | survival against sepsis [2]: significantly increased survival against sepsis |
| COc1cc2nc(N3CCN(C(=O)C4CCCO4)CC3)nc(NC3CCCCC3)c2cc1OC (stereo not shown) [Co.9] | 1.4 | 20 to 50 | – | survival against sepsis [2]: significantly increased survival against sepsis |
| COc1cc2nc(N3CCN(C(=O)C4CCCO4)CC3)nc(NC(=O)C(F)(F)F)c2cc1OC (stereo not shown) [Co.13] | 1.8 | 20 to 50 | effective to reduce the infarct volume | survival against sepsis [2]: significantly increased survival against sepsis |
| Nc1nc(N2CCN(C(=O)C3CCCO3)CC2)nc2cc3c(cc12)OCO3 (stereo not shown) [Co.15] | 0.6 | – | – | – |
| COc1cc2c(N)nc(N3CCN(C(=O)C4CCCO4)CC3)nc2cc1F (stereo not shown) [Co.18] | 1.3 | – | – | survival against sepsis [2]: significantly increased survival against sepsis |
| Nc1nc(N2CCN(C(=O)C3CCCO3)CC2)nc2cc(N3CCCCC3)c(C(F)(F)F)cc12 (stereo not shown) [Co.19] | 1.4 | 20 to 50 | effective to reduce the infarct volume | – |
| Nc1nc(N2CCN(C(=O)C3CCCO3)CC2)nc2cc3cccnc3cc12 (stereo not shown) [Co.20] | 1.9 | – | – | – |
| COc1c(OC)c(OC)c2c(N)nc(N3CCN(C(=O)C4CCCO4)CC3)nc2c1OC(C)=O (stereo not shown) [Co.26] | 3.2 | – | – | – |
| COc1c(OC)c(OC)c2c(N)nc(N3CCN(C(=O)C4CCCO4)CC3)nc2c1F (stereo not shown) [Co.28] | 1.2 | – | – | survival against sepsis [2]: significantly increased survival against sepsis |
| COc1c(OC)c(OC)c2c(N)nc(N3CCN(C(=O)C4CCCO4)CC3)nc2c1NC(C)=O (stereo not shown) [Co.29] | 2.6 | – | effective to reduce the infarct volume | survival against sepsis [2]: significantly increased survival against sepsis |
| COc1c(OC)c(OC)c2c(N)nc(N3CCN(C(=O)C4CCCO4)CC3)nc2c1OC1CC=CCC1 (stereo not shown) [Co.32] | 2.8 | 20 to 50 | effective to reduce the infarct volume | – |
| CC1(C)S[C@@H]2[C@H](NC(=O)[C@H](N)c3ccccc3)C(=O)N2[C@H]1C(=O)O [ampicillin] | – | – | – | growth of E. coli (inhibition zones) [5]: shown to inhibit E. coli growth |

Continued, in another order:

| fold induction at 0.02 µg/mL [3, 7] | SMILES | inhibition in vivo at 0.4 mg/kg [1] [%] | infarct volume (% infarct volume = white area/total area) [4] | other results |
| --- | --- | --- | --- | --- |
| 2.3 | COc1cc2nc(N3CCN(C(=O)C4CCCO4)CC3)nc(NCCOCCO)c2cc1OC (stereo not shown) [Co.2] | – | – | fold induction at 0.02 µg/mL [3, 6]: 2.3 |
| 1.9 | COc1cc2nc(N3CCN(C(=O)C4CCCO4)CC3)nc(NN)c2cc1OC (stereo not shown) [Co.3] | 20 to 50 | – | – |
| 1.5 | C=CCNc1nc(N2CCN(C(=O)C3CCCO3)CC2)nc2cc(OC)c(OC)cc12 (stereo not shown) [Co.5] | – | – | – |
| 1.2 | C#CCNc1nc(N2CCN(C(=O)C3CCCO3)CC2)nc2cc(OC)c(OC)cc12 (stereo not shown) [Co.6] | – | – | – |
| 2.1 | CCCCCCNc1nc(N2CCN(C(=O)C3CCCO3)CC2)nc2cc(OC)c(OC)cc12 (stereo not shown) [Co.7] | 20 to 50 | effective to reduce the infarct volume | – |
| 0.9 | COc1cc2nc(N3CCN(C(=O)C4CCCO4)CC3)nc(NCCCCC(F)(F)F)c2cc1OC (stereo not shown) [Co.8] | – | effective to reduce the infarct volume | – |
| 0.7 | COc1cc2nc(N3CCN(C(=O)C4CCCO4)CC3)nc(N3CCCCC3)c2cc1OC (stereo not shown) [Co.10] | – | – | – |
| 2.1 | COc1cc2nc(N3CCN(C(=O)C4CCCO4)CC3)nc(N(C)CCOCCO)c2cc1OC (stereo not shown) [Co.11] | – | – | – |
| 2.6 | COc1cc2nc(N3CCN(C(=O)C4CCCO4)CC3)nc(Nc3ccccc3)c2cc1OC (stereo not shown) [Co.12] | – | – | – |
| 1.5 | COc1cc2nc(N3CCN(C(=O)C4CCCO4)CC3)nc(NC(=O)c3ccccc3)c2cc1OC (stereo not shown) [Co.14] | – | effective to reduce the infarct volume | – |
| 1.7 | CCOCCOc1cc2nc(N3CCN(C(=O)C4CCCO4)CC3)nc(N)c2cc1OCCOCC (stereo not shown) [Co.16] | 20 to 50 | effective to reduce the infarct volume | – |
| 1.1 | COc1cc2c(N)nc(N3CCN(C(=O)C4CCCO4)CC3)nc2cc1OC(C)=O (stereo not shown) [Co.17] | – | – | – |
| 2.4 | CCCc1cc2nc(N3CCN(C(=O)C4CCCO4)CC3)nc(N)c2cc1OC (stereo not shown) [Co.22] | – | – | – |
| 0.7 | COc1cc2c(N)nc(N3CCN(C(=O)C4CCCO4)CC3)nc2cc1NC(=O)c1ccccc1 (stereo not shown) [Co.23] | – | – | – |
| 0.4 | COc1cc2c(N)nc(N3CCN(C(=O)C4CCCO4)CC3)nc2cc1OC1CC=CCC1 (stereo not shown) [Co.24] | 20 to 50 | – | – |
| 2.7 | CCOCCOc1c(OC)c(OC)c(OCCOCC)c2c(N)nc(N3CCN(C(=O)C4CCCO4)CC3)nc12 (stereo not shown) [Co.25] | – | – | – |
| 0.9 | COc1c(OC)c(C(F)(F)F)c2c(N)nc(N3CCN(C(=O)C4CCCO4)CC3)nc2c1N1CCCCC1 (stereo not shown) [Co.27] | 20 to 50 | – | – |
| 1.8 | CCCCc1c(OC)c(OC)c(OC)c2c(N)nc(N3CCN(C(=O)C4CCCO4)CC3)nc12 (stereo not shown) [Co.30] | – | – | – |
| 0.6 | COc1c(OC)c(OC)c2c(N)nc(N3CCN(C(=O)C4CCCO4)CC3)nc2c1NC(=O)c1ccccc1 (stereo not shown) [Co.31] | – | – | – |
